{"source": "BindingDB's records for doi:10.1021/jm049864b", "about": "(Boehringer Ingelheim (Canada), 2004)", "molecular_target": "T1, Genome polyprotein [1027-1206,R1052K]/[1678-1691] (Hepatitis C virus genotype 1b (isolate Japanese), UniProt P26662+Q9WMX2, R1052K)", "T1 construct": "1027-1206; 1678-1691", "T1 sequence (Q9WMX2 1027-1206, looked up, stated change not applied, other chains not shown)": "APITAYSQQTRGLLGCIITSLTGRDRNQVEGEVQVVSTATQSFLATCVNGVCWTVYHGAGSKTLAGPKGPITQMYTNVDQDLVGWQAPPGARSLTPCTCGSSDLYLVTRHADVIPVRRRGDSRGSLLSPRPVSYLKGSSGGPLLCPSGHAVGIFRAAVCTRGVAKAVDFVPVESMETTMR", "assay": "HCV Protease Inhibition Assay", "settings": "pH 7.5; 23 °C", "note": "Where a SMILES comes first, the peptide text is derived from it. [ ]: non-standard residue; d: D form. Nva = CCC[C@H](N)C(=O)O"}
{"smiles": "CCC[C@H](NC(=O)[C@@H]1CCCN1C(=O)[C@@H](NC(=O)[C@@H](NC(=O)[C@H](CC(=O)O)NC(=O)[C@H](CC(=O)O)NC(C)=O)[C@@H](C)CC)C(C)C)C(=O)O", "note": "[(2S)-2-{[(2S)-1-[(2S)-2-[(2S)-2-[(3S)-3-[(3S)-3-acetamido-3-formamidopropanoic acid]-3-formamidopropanoic acid]-3-methylpentanamido]-3-methylbutanoyl]pyrrolidin-2-yl]formamido}pentanoic acid] (Ac-DDIVP[Nva]-OH)", "values": [{"measurement": "IC50", "value": 150, "unit": "µM"}]}
